Reference: patent publication US6686349B2, “Substituted tetracyclic pyrroloquinolone derivatives useful as phosphodiesterase inhibitors” (Ortho-McNeil Pharmaceutical, Inc., priority 2001, dated 2004)

What was measured:
[1] = target: PDEV (UniProt O76074); experiment: In vitro determination of Ki for phosphodiesterase inhibitors (PDEV); format: biochemical, rabbit and human tissues; conditions: 30 nM 3H-cGMP, 30° C. for 90 minutes; Ki is equivalent to the IC50 value
Description: Cyclic Nucleotide Phosphodiesterase (PDE) Assay
PDEV was isolated from rabbit and human tissues according to the protocol described by Boolell et al. (Boolell, M., Allen, M. J., Ballard, S. A., Ge[o-Attee, Muirhead, G. J., Naylor, A. M., Osterloh, I. H., and Gingell, C) in International Journal of Impotence Research 1996 8, 47-52 with minor modifications.
Briefly, rabbit or human tissues were homogenized in an ice-cold buffer solution containing 20 mM HEPES (pH 7.2), 0.25M sucrose, 1 mM EDTA, and 1 mM PMSF. The homogenates were centrifuged at 100,000 g for 60 minutes at 4° C. The supernatant was filtered through […] filter and loaded on a Pharmacia Mono Q anion exchange column (1 ml bed volume) that was equilibrated with 20 mM HEPES, 1 mM EDTA and 0.5 mM PMSF. After washing out unbound proteins, the enzymes were eluted with a linear gradient of 100-600 mM NaCl in the same buffer (35 to 50 ml total, depending on the tissue. Enzymes from the skeletal muscle, corpus cavernosum, retina, heart and platelet were eluted with 35, 40, 45, 50, and 50 ml respectively.) The column was run at a flow rate of 1 ml/min and 1 ml fractions were collected. The fractions comprising various PDE activities were pooled separately and used in later studies. […]
In Vitro Determination of Ki for Phosphodiesterase Inhibitors
The assays were adapted to a 96-well format. Phosphodiesterase was assayed in 5 mM MgCl2, 15 mM Tris HCl (pH 7.4), 0.5 mg/ml bovine serum albumin, 30 nM ^3H-cGMP and test compound at various concentrations. The amount of enzyme used for each reaction was such that less than 15% of the initial substrate was converted during the assay period. For all measurements, the test compound was dissolved and diluted in 100% DMSO (2%DMSO in assay). The total volume of the assay was 100 μl. The reaction mixture was incubated at 30° C. for 90 minutes. The reaction was stopped by boiling for 1 minute and then immediately cooled by transfer to an ice bath. To each well was then added 25 μl 1 mg/ml snake venom (Ophiophagus hannah) and the reaction mixture incubating at 30° C. for 10 minute. The reaction was stopped by the addition of 1 ml Bio-Rad AG1-X2 resin slurry (1:3). An aliquot of 200 μl was taken and counted by liquid scintillation.
The % inhibition of the maximum substrate conversion (by the enzyme in the absence of inhibitor) was calculated for each test compound concentration. Using GraphPad Prism's nonlinear regression analysis (sigmoidal dose response), the % inhibition vs log of the test compound concentration was plotted to determine the IC50. Under conditions where substrate concentration<<Km of the enzyme (Km=substrate concentration at which half of the maximal velocity of the enzyme is achieved), Ki is equivalent to the IC50 value.
Following the procedures as described in Examples 10 and 11 herein, representative compounds of the instant invention were tested for PDEV and PDEVI activity. PDEV inhibitory activities for these compounds are presented as Ki values (nM) in the Table 4.

[2] = In vivo testing following the procedure of Carter et al.; conditions: J. Urology 1998, 160, 242-246
Description: Following the procedure disclosed by Carter et al., (Carter, A. J., Ballard, S. A., and Naylor, A. M.) in The Journal of Urology 1998, 160, 242-246, compound #8 was tested as active for in vivo activity.

[3] = use of sildenafil; non-selective effects on a variety of tissues; cited from earlier work

## CN1CC(=O)N2C(C1=O)c1c([nH]c3ccccc3c1=O)[C@H]2c1ccc2c(c1)OCO2 (stereo in doubt) [Compound 9, 11-Benzo[1,3]dioxol-5-yl-3-methyl-2,3,4a,11-tetrahydro-10H-3,10,11a-triaza-benzo[b]fluorene-1,4,5-trione]
[1]
  Ki: 48 nM

## CN1CC(=O)N2[C@H](c3ccc4c(c3)CCO4)c3[nH]c4ccccc4c(=O)c3[C@@H]2C1=O [Compound 1, 11-(2,3-Dihydro-benzofuran-5-yl)-3-methyl-2,3,4a,11-tetrahydro-10H-3,10,11a-triaza-benzo[b]fluorene-1,4,5-trione]
[1]
  Ki: 7 nM

## CN1CC(=O)N2[C@H](c3ccc4c(c3)CCO4)c3[nH]c4ccccc4c(=O)c3[C@H]2C1=O [Compound 2, 11-(2,3-Dihydro-benzofuran-5-yl)-3-methyl-2,3,4a,11-tetrahydro-10H-3,10,11a-triaza-benzo[b]fluorene-1,4,5-trione]
[1]
  Ki: 69 nM

## CN1CC(=O)N2[C@@H](c3ccc4c(c3)OCO4)c3[nH]c4ccccc4c(=O)c3[C@H]2C1=O [Compound 3, 11-Benzo[1,3]dioxol-5-yl-3-methyl-2,3,4a,11-tetrahydro-10H-3,10,11a-triaza-benzo[b]fluorene-1,4,5-trione]
[1]
  Ki: 17 nM

## CN1CC(=O)N2[C@@H](c3ccc4c(c3)OCO4)c3[nH]c4ccccc4c(=O)c3[C@@H]2C1=O [Compound 4, 11-Benzo[1,3]dioxol-5-yl-3-methyl-2,3,4a,11-tetrahydro-10H-3,10,11a-triaza-benzo[b]fluorene-1,4,5-trione]
[1]
  Ki: 80 nM

## O=C1[C@H]2c3c([nH]c4ccccc4c3=O)[C@@H](c3ccc4c(c3)OCO4)N2C(=O)CN1Cc1ccccc1 [Compound 5, 11-Benzo[1,3]dioxol-5-yl-3-benzyl-2,3,4a,11-tetrahydro-10H-3,10,11a-triaza-benzo[b]fluorene-1,4,5-trione]
[1]
  Ki: 123 nM

## CN1CCC(=O)N2[C@H](c3ccc4c(c3)OCO4)c3[nH]c4ccccc4c(=O)c3[C@@H]2C1=O [Compound 7, 11-Benzo[1,3]dioxol-5-yl-7-methyl-5b,8,9,12-tetrahydro-7H,11H-7,10a,12-triaza-naphtho[2,3-a]azulene-5,6,10-trione]
[1]
  Ki: 148 nM

## CN1CC(=O)N2[C@H](c3ccc4c(c3)OCO4)c3[nH]c4ccccc4c(=O)c3[C@@H]2C1=O [Compound 8, 11-Benzo[1,3]dioxol-5-yl-3-methyl-2,3,4a,11-tetrahydro-10H-3,10,11a-triaza-benzo[b]fluorene-1,4,5-trione]
[2]
  in vivo activity: active
[1]
  Ki: 14 nM

## O=C1[C@H]2c3c([nH]c4ccccc4c3=O)[C@@H](c3ccc4c(c3)OCO4)N2C(=O)CN1Cc1ccccn1 [Compound 10, 11-Benzo{1,3]dioxol-5-yl-3-pyridin-2-ylmethyl-2,3,4a,11-tetrahydro-10H-3,10,11a-triaza-benzo[b]fluorene-1,4,5-trione]
[1]
  Ki: 63 nM

## CCCc1nn(C)c2c(=O)[nH]c(-c3cc(S(=O)(=O)N4CCN(C)CC4)ccc3OCC)nc12 [sildenafil, 5-[2-ethoxy-5-(4-methylpiperazin-1-ylsulphonyl)phenyl]-1-methyl-3-n-propyl-6,7-dihydro-1H-pyrazolo[4,3-d]pyrimidin-7-one]
[3]
  undesirable side effects: headache, flushing and disrupted color vision
